By inhibition is commonly meant how much of the control response was suppressed. By IC50 is commonly meant the concentration that gives 50% inhibition. By Ki is commonly meant the equilibrium dissociation constant of an inhibitor or competing ligand from its target.

“Also recorded” adds a separate entry of the source. Read-outs that look alike come from different tables or passages of the source.

The target of assay [1] is T1, BChE (Homo sapiens, UniProt P06276). The assay is described as follows: BChE inhibition, modified Ellman method. The format is biochemical. The settings on record: for inhibition at 50 µM: read-out: BChE % inhibition at 50 µM; for BChE inhibition, outcome in words: 50 µM screening. The protocol:
(§1) Cholinesterase inhibitory activities of all analogs were evaluated spectrometrically using the modified Ellman method as previously reported. […] The absorbance of each well was measured at 415 nm using a microplate reader. IC50 and inhibition values were calculated with the software GraphPad Prism as the mean of three independent experiments and expressed as mean ± SEM[42],[43].
For orientation: Ellman's reagent forms a yellow product with free thiols.

Assay [2] addresses T2, AChE (Homo sapiens, UniProt P22303). The assay can be described thus: biochemical. The settings on record: for inhibition at 50 µM: read-out: AChE % inhibition at 50 µM. The protocol: as §1
Assay [3] addresses T1, BChE. The assay is described as follows: Enzyme kinetic study against BChE (Lineweaver–Burk). It counts as biochemical. The protocol: (§2) A Lineweaver–Burk plot was generated to identify the type of inhibition and the Michaelis–Menten constant (Km) value was determined from plot between reciprocal of the substrate concentration (1/[S]) and reciprocal of enzyme rate (1/V) over the various inhibitor concentrations[44],[45].

In assay [4] the target is T2, AChE. The assay is described as follows: Enzyme kinetic study against AChE (Lineweaver–Burk). The format is biochemical. The protocol: To investigate the type of inhibition of AChE and BChE, kinetic studies of 3m were conducted using various concentrations of ATCI or BTCI as a substrate.
as §2

The next assay concerns hAChE. More on the design: method as in PMID 23078965. The settings on record: previously reported; cited from earlier work.
Another assay relates to hBChE. More on the design: method as in PMID 23078965. The settings on record: previously reported; cited from earlier work.
Assay [5] concerns the target T2, AChE. More on the design: method as in doi:10.5530/ijper.52.4.75. The settings on record: previously reported; unit inferred; cited from earlier work.
In assay [6] the target is T1, BChE. Further details: method as in doi:10.5530/ijper.52.4.75. The settings on record: previously reported; unit inferred; cited from earlier work.

T1 sequence (P06276 29-602, species assumed): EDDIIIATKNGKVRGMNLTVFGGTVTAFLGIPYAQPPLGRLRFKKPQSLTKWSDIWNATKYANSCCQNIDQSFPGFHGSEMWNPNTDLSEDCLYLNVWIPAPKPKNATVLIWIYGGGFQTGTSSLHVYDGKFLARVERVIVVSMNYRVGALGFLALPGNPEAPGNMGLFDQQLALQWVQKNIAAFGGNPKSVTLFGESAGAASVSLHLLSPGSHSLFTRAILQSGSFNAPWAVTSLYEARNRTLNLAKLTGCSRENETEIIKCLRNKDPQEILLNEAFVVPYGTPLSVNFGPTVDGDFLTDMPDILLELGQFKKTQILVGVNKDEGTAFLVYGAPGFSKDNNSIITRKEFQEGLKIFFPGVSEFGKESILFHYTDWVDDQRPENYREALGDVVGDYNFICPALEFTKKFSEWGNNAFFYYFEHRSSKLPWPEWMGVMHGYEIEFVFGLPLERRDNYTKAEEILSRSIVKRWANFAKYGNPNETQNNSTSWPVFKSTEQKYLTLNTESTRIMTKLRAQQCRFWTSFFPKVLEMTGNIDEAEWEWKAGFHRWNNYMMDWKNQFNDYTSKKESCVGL
T2 sequence (P22303 32-614): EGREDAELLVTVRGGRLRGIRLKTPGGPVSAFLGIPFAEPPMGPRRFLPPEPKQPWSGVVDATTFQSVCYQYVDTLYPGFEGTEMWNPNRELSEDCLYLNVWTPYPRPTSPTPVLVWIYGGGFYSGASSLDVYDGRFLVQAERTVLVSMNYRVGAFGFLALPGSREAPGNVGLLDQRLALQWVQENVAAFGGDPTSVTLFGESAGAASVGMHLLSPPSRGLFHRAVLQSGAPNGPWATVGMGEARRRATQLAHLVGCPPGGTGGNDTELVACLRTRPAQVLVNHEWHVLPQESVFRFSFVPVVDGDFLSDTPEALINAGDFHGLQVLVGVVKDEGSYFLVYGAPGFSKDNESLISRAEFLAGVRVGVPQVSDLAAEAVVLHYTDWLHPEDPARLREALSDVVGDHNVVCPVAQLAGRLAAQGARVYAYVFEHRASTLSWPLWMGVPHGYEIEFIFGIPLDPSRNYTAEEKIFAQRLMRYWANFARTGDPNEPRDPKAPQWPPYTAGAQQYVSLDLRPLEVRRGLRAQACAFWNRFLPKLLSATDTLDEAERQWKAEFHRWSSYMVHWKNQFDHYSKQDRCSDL

On to `COc1ccc(Nc2ncc(-c3ccccc3)cc2[N+](=O)[O-])cc1` [3a, N-(4-Methoxyphenyl)-3-nitro-5-phenylpyridin-2-amine], for which the inhibition at 50 µM at BChE [1] (50 µM, mean ± S.E) stood at 22.1 ± 0.33%; at AChE [2] (50 µM, mean ± S.E) it was 28.1 ± 3.93%.
Consider `O=[N+]([O-])c1cc(-c2ccccc2)cnc1Nc1ccc(Cl)cc1` [3b, N-(4-Chlorophenyl)-3-nitro-5-phenylpyridin-2-amine], for which the inhibition at 50 µM at BChE [1] (50 µM, mean ± S.E) was found to be 27.5 ± 1.92%; on AChE [2] (50 µM, mean ± S.E) it was 59.9 ± 11%.
For the molecule `COc1ccc(Nc2ncc(-c3ccc(F)cc3)cc2[N+](=O)[O-])cc1` [3c, 5-(4-Fluorophenyl)-N-(4-methoxyphenyl)-3-nitropyridin-2-amine], the “BChE inhibition, outcome in words” value at BChE [1] is “almost inactive”. Besides, the inhibition at 50 µM at BChE [1] (50 µM, mean ± S.E) came out at 3.4 ± 1.63%; on AChE [2] (50 µM, mean ± S.E), 10.7 ± 2.31%.
With `Cc1ccc(Nc2ncc(-c3ccc(F)cc3)cc2[N+](=O)[O-])cc1` [3d, 5-(4-Fluorophenyl)-3-nitro-N-(p-tolyl)pyridin-2-amine], the inhibition at 50 µM at BChE [1] (50 µM, mean ± S.E) worked out at 46.4 ± 2.42%; at AChE [2] (50 µM, mean ± S.E), 39.4 ± 1.56%.
For the molecule `O=[N+]([O-])c1cc(-c2ccc(F)cc2)cnc1Nc1ccc(Cl)cc1` [3e, N-(4-Chlorophenyl)-5-(4-fluorophenyl)-3-nitropyridin-2-amine], the “BChE inhibition, outcome in words” value on BChE [1] is “almost inactive”. Moreover, the inhibition at 50 µM on BChE [1] (50 µM, mean ± S.E) was 19.6 ± 1.49%; at AChE [2] (50 µM, mean ± S.E), 19.3 ± 3.3%.
Regarding `COc1ccc(Nc2ncc(-c3ccc(Cl)cc3)cc2[N+](=O)[O-])cc1` [3f, 5-(4-Chlorophenyl)-N-(4-methoxyphenyl)-3-nitropyridin-2-amine], the inhibition at 50 µM at BChE [1] (50 µM, mean ± S.E) was 31.7 ± 1.1%; on AChE [2] (50 µM, mean ± S.E) it was 33 ± 1.86%.
On the same counts, the results for `O=[N+]([O-])c1cc(-c2ccc(Cl)cc2)cnc1Nc1ccc(Cl)cc1` [3g, N,5-Bis(4-chlorophenyl)-3-nitropyridin-2-amine] are 12.3 ± 0.99% and 17.8 ± 2.74%.
For the molecule `Cc1ccccc1Nc1ncc(-c2ccc(Cl)cc2)cc1[N+](=O)[O-]` [3h, 5-(4-Chlorophenyl)-3-nitro-N-(o-tolyl)pyridin-2-amine], the inhibition at 50 µM at BChE [1] (50 µM, mean ± S.E) was 14.6 ± 1.95%; at AChE [2] (50 µM, mean ± S.E) it was 23.1 ± 8.61%.
For `O=[N+]([O-])c1cc(-c2ccc(Cl)cc2)cnc1Nc1cccc2ccccc12` [3i, 5-(4-Chlorophenyl)-N-(naphthalen-1-yl)-3-nitropyridin-2-amine], the inhibition at 50 µM is 35.3 ± 5.14% at BChE [1] (50 µM, mean ± S.E) and 39.7 ± 1.67% on AChE [2] (50 µM, mean ± S.E).
As to `COc1ccc(Nc2ncc(-c3ccc(Br)cc3)cc2[N+](=O)[O-])cc1` [3j, 5-(4-Bromophenyl)-N-(4-methoxyphenyl)-3-nitropyridin-2-amine], the inhibition at 50 µM on BChE [1] (50 µM, mean ± S.E) was 46.1 ± 0.92%; at AChE [2] (50 µM, mean ± S.E), 38.8 ± 3.27%.
Take `O=[N+]([O-])c1cc(-c2ccc(Br)cc2)cnc1Nc1ccc(Cl)cc1` [3k, 5-(4-Bromophenyl)-N-(4-chlorophenyl)-3-nitropyridin-2-amine]: the inhibition at 50 µM on BChE [1] (50 µM, mean ± S.E) was determined as 12.8 ± 1.7%; on AChE [2] (50 µM, mean ± S.E) it was 27.8 ± 1.75%.
The corresponding values for `Cc1ccc(Nc2ncc(-c3ccc(Br)cc3)cc2[N+](=O)[O-])cc1` [3l, 5-(4-Bromophenyl)-3-nitro-N-(p-tolyl)pyridin-2-amine] are 6.96 ± 0.74% and 24.9 ± 5.01%.
On to `CC(C)(C)c1cc[n+](-c2cnc(Nc3ccc(Cl)cc3)c([N+](=O)[O-])c2)cc1.[O-][Cl+3]([O-])([O-])[O-]` [3m, 4-(Tert-butyl)-6ʹ-((4-chlorophenyl)amino)-5'-nitro-[1,3'-bipyridin]-1-ium perchlorate], for which, at BChE [1], half-maximal inhibition (IC50) required 20.7 ± 1.01 µM, the “selectivity ratio for BChE over AChE” value is 1.686 and the inhibition at 50 µM amounted to 76.7 ± 6.01%. Also, on AChE [2], the half-maximal inhibitory concentration (IC50) is 34.8 ± 3.71 µM and the inhibition at 50 µM is 74.3 ± 5.86%. For the same molecule, on BChE [3] (Lineweaver–Burk plot), the “type of inhibition, BChE” value is listed as “mixed type of inhibition; also recorded: mix-type inhibition”. Moreover, the “Kis, BChE” value at BChE [3] (plot of 1/Vmax vs inhibitor concentration, substrate BTCI) is 46.27 µM. At BChE [3] (plot of slope vs inhibitor concentration, substrate BTCI), this molecule registered an inhibition constant Ki of 17.5 µM. The “type of inhibition, AChE” value at AChE [4] (Lineweaver–Burk plot) is reported as “mixed inhibition; also recorded: mix-type inhibition”. For the same molecule, the inhibition constant (Ki) at AChE [4] (secondary plot of Lineweaver–Burk data, substrate ATCI, read-out: inhibition constant (Ki), AChE) is 8.92 µM.
As to `Cc1ccccc1Nc1ncc(-c2cccc3ccccc23)cc1[N+](=O)[O-]` [3n, 5-(Naphthalen-1-yl)-3-nitro-N-(o-tolyl)pyridin-2-amine], the inhibition at 50 µM on BChE [1] (50 µM, mean ± S.E) is 38.9 ± 2.97%; on AChE [2] (50 µM, mean ± S.E), 40.7 ± 2.6%.
`Cc1ccc(Nc2ncc(-c3cccc4ccccc34)cc2[N+](=O)[O-])cc1` [3o, 5-(Naphthalen-1-yl)-3-nitro-N-(p-tolyl)pyridin-2-amine]: the inhibition at 50 µM on BChE [1] (50 µM, mean ± S.E) was 22.8 ± 2.7%; on AChE [2] (50 µM, mean ± S.E), 35.6 ± 4.63%.
For `O=[N+]([O-])c1cc(-c2cccc3ccccc23)cnc1Nc1ccc(Cl)cc1` [3p, N-(4-Chlorophenyl)-5-(naphthalen-1-yl)-3-nitropyridin-2-amine], the inhibition at 50 µM at BChE [1] (50 µM, mean ± S.E) was found to be 11.7 ± 0.12%; on AChE [2] (50 µM, mean ± S.E), 21.4 ± 1.86%.
The corresponding values for `O=[N+]([O-])c1cc(-c2cccc3ccccc23)cnc1Nc1cccc2ccccc12` [3q, N,5-Di(naphthalen-1-yl)-3-nitropyridin-2-amine] are 53.07 ± 0.42% and 34 ± 2.39%.
For `N#Cc1cc(C#N)c(NCCCC2CCN(Cc3ccccc3)CC2)nc1N` [A], in the assay with hAChE, the IC50 is 0.0094 ± 0.0004 µM and the “selectivity against hAChE than hBChE” value is recorded as 703 fold. Moreover, the IC50 in the assay with hBChE is 6.6 ± 0.7 µM.
With `O=C(N/N=C(/c1ccc(O)cc1)c1cccc(O)c1)Nc1ccncc1` [B], the IC50 at AChE [5] was 5.58 ± 0.016 µM; at BChE [6], 6.44 ± 0.65 µM.

The values above are taken from PMC11178820, “Synthesis of novel aryl-substituted 2-aminopyridine derivatives by the cascade reaction of 1,1-enediamines with vinamidinium salts to develop novel anti-Alzheimer agents” (Scientific Reports, 2024).
